# Measured values from patent US4987151A, “Triterpene derivatives cholesterol acyltransferase inhibitors and methods of using same” (The Trustees of Columbia University in the City of New York, priority 1989, dated 1991).
# Legend:
# [1] = tested on: J774 Macrophages; conditions: tissue culture macrophages (J774); cited from earlier work
# [2] = tested on: ACAT enzyme; assay: ACAT inhibitory activity, free hydroxyl compound versus ester admixture; assay type: biochemical
# Procedure: The term "effective amount" as used herein is an amount sufficient to inhibit the ACAT enzyme from esterifying cholesterol and fatty acids to cholesteryl esters. The actual amount used varies depending on which compound or composition or admixture is used. For example, the free hydroxyl compound seems to have less activity than an admixture of the stearate and palmitate esters. The actual dosages may vary from about 0.1 mg/kg/day to about 50 mg/kg/day, and may be adjusted by a person of ordinary skill in the art to maximize effectiveness while avoiding side effects and toxicities.
# [3] = tested on: rats; conditions: cited from earlier work
structure (smiles),measurement,setting,value
CCCCCCCCCC[Si](C)(C)CCC(=O)NC(Cc1ccc(C)cc1)c1ccccc1 (stereo not drawn) [Sandoz Compound 58-035],effect on foam cell formation,[1],help prevent foam cell formation
C[C@@H]1[C@H](O)CC[C@]2(C)[C@H]3CC=C4[C@@H]5C[C@](C)(C(=O)O)C[C@H](O)[C@]5(C)CC[C@@]4(C)[C@]3(C)CC[C@@H]12 [free hydroxyl compound],activity relative to admixture of the stearate and palmitate esters,[2],less activity
"CCCCCCCN(Cc1ccc(CC(C)(C)C)cc1)C(=O)Nc1ccc(F)cc1F [CL 277,082]","effect on cholesterol concentrations in plasma, liver, and aorta",[3],"decreasing cholesterol concentrations in plasma, liver, and aorta"
